In patent publication US20250041254A1, “USE OF SODIUM FORMATE IN PREPARATION OF AN ANTI-INFECTIVE DRUG” (priority 2022, published 2025):

Experiments:
Type in all cases: cell-based
[1] = tested on: clinically multidrug-resistant and carbapenem-resistant Escherichia coli strain No. 28; assay: Live bacterial count / survival rate of CR Escherichia coli strain No. 28 (antibiotic concentration, sodium formate concentration, time, other antibiotics)
Protocol: Single bacterial colonies were selected and inoculated into a 5 mL LB medium, cultivated at 37° C. (clinically multidrug-resistant and carbapenem-resistant or multidrug-resistant but carbapenem-sensitive Escherichia coli, clinically multidrug-resistant and carbapenem-resistant or multidrug-resistant but carbapenem-sensitive Klebsiella pneumoniae, clinically multidrug-resistant and carbapenem-resistant or multidrug-resistant but carbapenem-sensitive Pseudomonas aeruginosa, methicillin-resistant Staphylococcus aureus, and sensitive bacteria for each type of bacteria) or 30° C. (Edwardsiella tarda and Vibrio) at 200 rpm for 16-24 hours; an appropriate amount of a bacterial solution was taken for centrifugation at 8000 rpm for 5 min to collect bacterial cells, the supernatant was removed, and the bacterial cells were washed with an equal volume of 0.85% normal saline for 3 times and suspended in M9 medium (containing 10 mM proline, 2 mM MgSO4. 0.1 mM CaCl2)), and a base bacterial solution was cultured with M9 to an OD600 concentration of 0.6 and divided into 5 mL test tubes for later use.
Taking clinically multidrug-resistant and carbapenem-resistant Escherichia coli strain No. 28 as an example, adding different concentrations of sodium formate or different concentrations of antibiotics and under different treating times, the effect of improving the sensitivity of multidrug-resistant Escherichia coli to micronomicin was studied in depth.
To understand how sodium formate increased the sensitivity of bacteria to micronomicin at different antibiotic concentrations, on the basis of exogenous addition of 20 mM sodium formate, 30-480 μg/mL (several concentrations of) micronomicin was added to treat bacteria. No antibiotic addition was used as a control, and live bacterial counts were performed to compare the survival rates of bacteria with and without the addition of sodium formate at the same antibiotic concentration after 10 hours.
To investigate whether there was a gradient effect between the concentration of sodium formate and the bactericidal efficiency, as well as its optimal bactericidal concentration, different concentrations of sodium formate (0.625 mM-40 mM) were added on the basis of 60 μg/mL micronomicin addition for 10 hours, then live bacteria were counted, and the survival rate was calculated according to a formula as the following: the number of live bacteria with different concentrations of sodium formate addition/the number of live bacteria without sodium formate addition×100%.
Further research was conducted on adding 20 mM sodium formate and 60 μg/mL micronomicin and counting live bacteria at different time, and the relationship between its bactericidal efficiency and time was observed.
To investigate whether the addition of sodium formate is effective to antibiotics other than micronomicin in multidrug-resistant Escherichia coli, a clinical multidrug-resistant and carbapenem-resistant Escherichia coli sample No. 28 was prepared according to Embodiment 1, and 20 mM sodium formate and different kinds of antibiotics were added, respectively. After 10 hours of action, the number of live bacteria was counted, and the survival rate of the bacteria with different antibiotics was calculated after adding sodium formate.

[2] = tested on: clinical multidrug-resistant but carbapenem-sensitive Escherichia coli (MDR-EC); assay: Survival rate (dot plate counting) of clinical multidrug-resistant but carbapenem-sensitive Escherichia coli, 18 strains; details: 10 hours
Protocol: (§1) Single bacterial colonies were selected and inoculated into a 5 mL LB medium, cultivated at 37° C. (clinically multidrug-resistant and carbapenem-resistant or multidrug-resistant but carbapenem-sensitive Escherichia coli, clinically multidrug-resistant and carbapenem-resistant or multidrug-resistant but carbapenem-sensitive Klebsiella pneumoniae, clinically multidrug-resistant and carbapenem-resistant or multidrug-resistant but carbapenem-sensitive Pseudomonas aeruginosa, methicillin-resistant Staphylococcus aureus, and sensitive bacteria for each type of bacteria) or 30° C. […]
(§2) Thirty-six clinical multidrug-resistant Escherichia coli samples were prepared according to Embodiment 1, of which 18 were clinical multidrug-resistant and carbapenem-resistant Escherichia coli (abbreviated as CR-EC) and 18 were clinical multidrug-resistant but carbapenem-sensitive Escherichia coli (abbreviated as MDR-EC). […] The number of bacteria was counted. […]

[3] = tested on: clinical multidrug-resistant and carbapenem-resistant Escherichia coli (CR-EC); assay: Survival rate (dot plate counting) of clinical multidrug-resistant and carbapenem-resistant Escherichia coli, 18 strains; details: 10 hours
Protocol: as §1, §2

Structure (SMILES)	number of live bacteria ([1]; 60 μg/mL micronomicin only, 1-4 hours)	survival rate ([1]; 60 μg/mL micronomicin only, 6 hours) [%]	survival rate ([1]; 60 μg/mL micronomicin only, 16 hours) [%]	survival rate ([1]; 60 μg/mL micronomicin only, 24 hours) [%]	survival rate ([1]; micronomicin 30 μg/mL without sodium formate, 10 hours) [%]	survival rate ([1]; micronomicin 60 μg/mL without sodium formate, 10 hours) [%]	survival rate ([1]; micronomicin 120 μg/mL without sodium formate, 10 hours) [%]	survival rate ([1]; micronomicin 240 μg/mL without sodium formate, 10 hours) [%]	survival rate ([1]; micronomicin 480 μg/mL without sodium formate, 10 hours) [%]	bacterial survival rate ([1]; sodium formate gradient experiment, control group: 60 μg/mL micronomicin without sodium formate, 10 hours) [%]	survival rate ([2]; 60 μg/mL micronomicin only, remaining 8 strains)	survival rate ([3]; 60 μg/mL micronomicin only, all 18 strains)	killing effect on bacteria ([2]; 20 mM sodium formate alone)	killing effect on bacteria ([3]; 20 mM sodium formate alone)
CNC[C@@H]1CC[C@@H](N)[C@@H](O[C@H]2[C@H](O)[C@@H](O[C@H]3OC[C@](C)(O)[C@H](NC)[C@H]3O)[C@H](N)C[C@@H]2N)O1 [micronomicin]	remained basically unchanged	87.96	72.72	34.64	100	77.37	35.87	29.77	29.01	72.3	less than 60%	67-97%	–	–
O=C[O-].[Na+] [sodium formate]	–	–	–	–	–	–	–	–	–	–	–	–	no killing effect	no killing effect
